The source of these data is patent publication US10179789B2, “Methylenedioxybenzo [I] phenanthridine derivatives used to treat cancer” (Rutgers, The State University of New Jersey, priority 2009, dated 2019).

The melting point is the temperature of the solid-liquid transition.

Where two headings read alike, the source gives them in different places.

Data set [1] deals with RPMI 8402 human lymphoblast cells. As to the kind of experiment: Test B. MTT cytotoxicity assay, RPMI8402. The data set is classed as cell-based. On the procedure: (§1) Test B. Cytotoxic Assays (Cancer Cell Lines and Efflux Transporter Cell Lines)
(§2) The cytotoxicity was determined using the MTT-microtiter plate tetrazolinium cytotoxicity assay (MTA). The human lymphoblast RPMI 8402 and its camptothecin-resistant variant cell line, CPT-K5 was provided by Dr. Toshiwo Andoh (Aichi Cancer Center Research Institute, Nagoya, Japan). (36) The P388 mouse leukemia cell line and its CPT-resistant TOP1-deficient variant P388/CPT45 (37) were obtained from Michael R. Mattern and Randal K. Johnson (GlaxoSmithKline, King of Prussia, Pa.). The KB3-1 cell line and its multidrug-resistant variant KBV-1 (38) were obtained from K. V. Chin (The Cancer Institute of New Jersey, New Brunswick, N.J.). The KBH5.0 cell line as noted previously (21) was derived from KB3-1 by stepwise selection against Hoechst 33342. The cytotoxicity assay was performed using 96-well microtiter plates. Cells were grown in suspension at 37° C. in 5% CO2 and maintained by regular passage in RPMI medium supplemented with 10% heat inactivated fetal bovine serum, L-glutamine (2 mM), penicillin (100 U/mL), and Streptomycin (0.1 mg/mL). For determination of IC50, cells were exposed continuously for FOUR days to varying concentrations of drug, and MTT assays were performed at the end of the fourth day. […] All assays were performed at least twice in six replicate wells.
For orientation: Tetrazolium assays rely on reduction of a dye to a coloured formazan, in cell work by metabolically active cells.

The subject of data set [2] is CPT-K5 (camptothecin-resistant variant of RPMI 8402). In words: Test B. MTT cytotoxicity assay, CPT-K5. The class given is cell-based, human. As for the experimental part:
as §1, §2

Data set [3] has as its system KB3-1 cell line. As to the kind of experiment: Cytotoxicity on KB3-1 (parent cell line). The data set is classed as cell-based. As for the experimental part: as §2
(§3) The cytotoxicity of the representative compounds of the invention were also tested on cell line KB3-1 (parent cell line), KBV-1 (a variant that overexpresses efflux transporter MDR1) and KBH5.0 (a variant that overexpresses BCRP). Differences in the relative cytotoxicity between the parent and variant cell lines may be indicative of a compound that is a substrate for an efflux transporter. […] Accordingly, compounds of the invention of formula I may be useful to treat tumors that are resistant to other anticancer agents, especially anticancer agents that are susceptible to efflux by BCRP (e.g. anthracyclines, mitoxantrone, topotecan, irinotecan, bisanthrone, doxorubicin, daunorubicin, and epirubin.

Data set [4] has as its system KBH5.0 (variant that overexpresses BCRP). As to the kind of experiment: Cytotoxicity on KBH5.0 (overexpresses BCRP). The class given is cell-based. The note with it: for substrate for BCRP: not told. On the procedure:
as §2, §3

Data set [5] relates to KBV-1 (variant that overexpresses efflux transporter MDR1). In words: Cytotoxicity on KBV-1 (overexpresses MDR1). The class given is cell-based. As for the experimental part:
as §2, §3

The subject of data set [6] is P388 mouse leukemia cell line. In words: Test B. MTT cytotoxicity assay, P388. The data set is classed as cell-based. As for the experimental part: as §1, §2
For data set [7], the system named is P388/CPT45 (CPT-resistant TOP1-deficient variant of P388). As to the kind of experiment: Test B. MTT cytotoxicity assay, P388/CPT45. The data set is classed as cell-based, mouse. As for the experimental part: as §1, §2
Data set [8] addresses T1, human topoisomerase I (Homo sapiens, UniProt P11387).
T1 construct: unnamed fusion partner (recombinant fusion protein, T7 expression system); made in house; host or cells: Escherichia coli
T1 sequence (P11387 1-765): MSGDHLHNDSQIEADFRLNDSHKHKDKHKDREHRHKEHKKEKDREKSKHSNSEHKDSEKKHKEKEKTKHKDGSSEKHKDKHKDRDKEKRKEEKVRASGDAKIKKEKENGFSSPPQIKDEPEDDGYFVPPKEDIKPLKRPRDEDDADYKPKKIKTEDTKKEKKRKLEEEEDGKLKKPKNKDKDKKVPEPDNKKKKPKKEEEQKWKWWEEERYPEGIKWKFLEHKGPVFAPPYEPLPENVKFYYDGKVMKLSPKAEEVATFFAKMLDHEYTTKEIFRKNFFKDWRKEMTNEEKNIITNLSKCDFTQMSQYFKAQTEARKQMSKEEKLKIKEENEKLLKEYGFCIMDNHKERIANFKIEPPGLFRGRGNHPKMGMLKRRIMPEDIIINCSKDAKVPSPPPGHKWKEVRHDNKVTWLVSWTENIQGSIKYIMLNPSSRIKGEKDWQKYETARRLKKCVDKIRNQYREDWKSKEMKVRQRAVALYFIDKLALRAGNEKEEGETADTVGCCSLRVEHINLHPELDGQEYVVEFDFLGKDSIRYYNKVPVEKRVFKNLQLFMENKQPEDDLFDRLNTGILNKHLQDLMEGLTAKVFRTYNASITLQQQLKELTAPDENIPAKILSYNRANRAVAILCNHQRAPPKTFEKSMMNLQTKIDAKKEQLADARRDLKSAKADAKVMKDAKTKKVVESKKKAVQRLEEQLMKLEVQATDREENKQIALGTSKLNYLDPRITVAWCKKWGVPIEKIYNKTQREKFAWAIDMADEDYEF
As to the kind of experiment: Test A. Topoisomerase I-mediated DNA cleavage assay. The class given is biochemical. The note with it: Relative Effective Concentration; relative to camptothecin arbitrarily assumed as 0.2; same 10% cleavage on plasmid DNA. The text has this:
Test A. Topoisomerase I—Mediated DNA Cleavage Assay Human topoisomerase I was expressed in Escherichia coli and isolated as a recombinant fusion protein using a T7 expression system as described previously (31). Plasmid YepG was also purified by the alkali lysis method followed by phenol deproteination and CsCl/ethidium isopycnic centrifugation method as described (32). The 3′ end labeling of the plasmid was accomplished by digestion with a restriction enzyme followed by end filling with Klenow polymerase as previously described (33). The cleavage assays were performed as previously reported (34,35). The drug and the DNA in presence of topoisomerase I was incubated for 30 min at room temperature. The reactions were terminated by the addition of 5 μL of 5% SDS and 1 mg/mL […] with an additional 1 h of incubation at 37° C. […] After development of the gels, typically 24-h exposure was used to obtain autoradiograms outlining the extent of DNA fragmentation. Topoisomerase I-mediated DNA cleavage values are reported as Relative Effective Concentration (REC). […] Results for the assay for representative compounds of the invention of formula I along with comparison compounds are shown in Table 1.

The nature of data set [9]: Cytotoxicity on KB3-1 (parent cell line). The data set is classed as cell-based. The note with it: human. As for the experimental part:
as §2, §3

In data set [10] the test system is BCRP. As to the kind of experiment: Cytotoxicity on KBH5.0 (overexpresses BCRP). The data set is classed as cell-based. The following applies: human. As for the experimental part: as §2, §3
The test system of data set [11] is MDR1. As to the kind of experiment: Cytotoxicity on KBV-1 (overexpresses MDR1). The following applies: human. The data set is classed as cell-based. As for the experimental part:
as §2, §3

As for `COc1cc2c(C(=O)NCC(C)(C)N(C)C)cc3c4cc5c(cc4ncc3c2cc1OC)OCO5` [Compound 31, 2,3-Dimethoxy-N-(2-(dimethylamino)-2-methylpropyl)-8,9-methylene-dioxybenzo[i] phenanthridine-12-carboxamide], the IC50 in data set [1] stood at 0.002 µM; in data set [2] it was 0.79 µM; in data set [3], 0.001 µM; in [4], 0.004 µM; in data set [5], 0.03 µM; in [6], 0.002 µM. Besides, the IC50 in [7] (P388/CPT45, four days continuous exposure, MTT, read-out: Cytotoxicity IC50 P388/CPT45) was determined as 0.25 µM. Also, the “substrate for BCRP” value in data set [4] was “not substrates for BCRP”. In addition, the “TOP1 Mediated DNA Cleavage (REC Value)” value in data set [8] is on record as 0.1.
Take `COc1cc2c(C(=O)NCC(C)(C)N(Cc3ccccc3)Cc3ccccc3)cc3c4cc5c(cc4ncc3c2cc1OC)OCO5` [Compound 32, N-(2-(Dibenzylamino)-2-methylpropyl)-2,3-dimethoxy-8,9-methylene-dioxybenzo[i]phenanthridine-12-carboxamide]: the IC50 turned out to be 0.06 µM in data set [1]; 5 µM in data set [2]; 0.02 µM in [3]; 0.6 µM in data set [4]; 2.9 µM in data set [5]; 0.03 µM in data set [6]. Besides, the IC50 in [7] is 1.3 µM. Moreover, in data set [8], the “TOP1 Mediated DNA Cleavage (REC Value)” value turned out to be 1.5.
As to `COc1cc2cc(C(=O)NCC(C)(C)N(C)C)c3c4cc5c(cc4ncc3c2cc1OC)OCO5` [Compound 34, 2,3-Dimethoxy-8,9-methylenedioxybenzo[i]phenanthridine-11-carboxylic acid 2-(dimethylamino)-2-methylpropylamide], the melting point lay in the range of 222 to 225 °C. Also, the IC50 in [1] (Homo sapiens, RPMI 8402, 96 h, read-out: Cytotoxicity IC50 RPMI8402) came to 0.003 µM. Also, the IC50 in data set [2] (Homo sapiens, CPT-K5, 96 h, read-out: Cytotoxicity IC50 CPT-K5) stood at 0.5 µM. Besides, the IC50 at 4 days in data set [9] was 0.003 µM. Further, the IC50 at 4 days in data set [10] turned out to be 0.01 µM. Also, the “substrate for BCRP” value in [4] is listed as “not substrates for BCRP”. The compound also had an IC50 at 4 days in data set [11] of 0.065 µM. Further, in data set [6] (Mus musculus, P388, 96 h, read-out: Cytotoxicity IC50 P388), the IC50 worked out at 0.002 µM. In addition, the IC50 in data set [7] (Mus musculus, P388CPT45, 96 h, read-out: Cytotoxicity IC50 P388/CPT45) amounted to 0.23 µM. Moreover, the “TOP1 Mediated DNA Cleavage (REC Value)” value in data set [8] turned out to be 0.09.
